Source: patent publication US20060258576A1, “Gdnf-related neuropeptides” (Licentia, Ltd, priority 2003, published 2006)
Entries after “also recorded” stand apart in the source; their conditions may differ. No end group written: not given here.

Experiments:
[1] = tested on: hippocampus area CA1; assay: Extracellular recordings (pEPSPs, population spikes) in acute rat hippocampal brain slice preparation; type: cell-based; conditions: for pEPSPs, fraction of control (FIG. 4D) / pSpikes, fraction of control (FIG. 4C): 10 nM SEQ ID NO:11, 20 nM SEQ ID NO:9 and SEQ ID NO:15, 250 μM NEM, adult rat hippocampus; for excitatory synaptic input into primary cells in the rat CA1: acute rat hippocampal brain slice; for reversal of effects upon removal of peptide from the superfusate: washout
[2] = tested on: embryonic mouse tissues; assay: Binding of I125-labeled peptides to embryonic mouse tissues (autoradiography, Tuj1 staining)
Description: (§1) The binding of I^125-labeled peptides to embryonic and adult rodent tissues was studied in vitro. Chemically synthesized peptides containing an extra N-terminal tyrosine (Sigma-Genosys, Cambridge, UK) were labeled with lactoperoxidase (Trupp et al. (1995) J. Cell Biol. 130(1): 137-148). Specific activities obtained for each were 0.5-2.5×10^14 cpm/mmol, except for SEQ ID NO:9 10^13 cpm/mmol. From both E17 Wistar rat and E15 mouse embryos, kidneys, gut, pancreas and spinal cord were dissected. In addition, testes, ovaries, brain and adrenal glands of the embryonic mice were taken. The binding was performed and paraffin sections of embryonic tissues were processed as described (Partanen et al. (1987) Dev Biol 120(1): 186-197). Freshly cut adult rat brain slices of 1 mm were cut and incubated in 0.5-1 nmol/ml of ^125I-peptides, washed and processed for paraffin sections. Kodak (Rochester, N.Y.) NTB-2 emulsion was used for autoradiography and the samples were exposed from 3 to 12 weeks at +4° C. The sections were developed with Kodak D19 and stained with hematoxylin.
For immunohistochemical staining of tissues, paraffin sections were mounted with Immumount (Shandon, Pittsburgh, Pa.). Sections were stained with an anti-class III β-tubulin antibody (Tuj1; Covance Inc., Princeton, N.J.), which recognizes selectively neuronal cells. Staining was performed with Vectastain kit (Vector Laboratories, Burlingame, Calif.) according to manufacturer's instructions, except that the primary antibody (1:300) was incubated in +4° C. o/n.

[3] = tested on: adult rat brain; assay: Binding of I125-labeled peptides to adult rat brain slices (autoradiography)
Description: as §1
For immunohistochemical staining of tissues, paraffin sections were mounted with Immumount (Shandon, Pittsburgh, Pa.). Sections were stained with an anti-class III β-tubulin antibody (Tuj1; Covance Inc., Princeton, N.J.), which recognizes selectively neuronal cells. […]

[4] = tested on: synaptic transmission; conditions: Qian et al (1997); cited from earlier work
[5] = tested on: ureteric branching; conditions: Sainio et al. (1997); cited from earlier work
[6] = tested on: primary neurons; conditions: U. Arumäe, personal communication; cited from earlier work
[7] = 10 nM peptide in the presence of 250 μM NEM
[8] = superfusion with 10-50 nM, 0.05 Hz stimulation of Schaffer collateral fibres, CA1, slices from P28-P35 rats

CCN1C(=O)C=CC1=O [NEM, N-ethylmaleimide, reference compound]
pEPSPs, fraction of control (FIG. 4D) [1]: increases | pSpikes, fraction of control (FIG. 4C) [1]: increases | stimulus-evoked responses ([1]; NEM by bath perfusion, every slice recorded): increased

FPLPA(a) (FPLPA-NH2; not fully specified) [SEQ ID NO:9, GDNF precursor-derived neuropeptide; human, mouse, rat]
presynaptic fiber volley (in words) ([1]; CA1, rat hippocampal slices): significant decrease | change of pSPs ([1]; CA1, rat hippocampal slices, concentration not given): −24% | excitatory synaptic input into primary cells in the rat CA1 [1]: modulate | reversal of effects upon removal of peptide from the superfusate [1]: fully or almost fully reversed | specific binding ([2]; I125-labeled peptide with extra N-terminal tyrosine): specific binding | tissue distribution of binding ([2]; I125-labeled peptide, E15 mouse embryo tissues): restricted to embryonic mouse tissues outside the CNS; also recorded: bound to embryonic (E15) mouse tissues | binding in testis ([2]; embryonic mouse testis (FIG. 3 I, J)): binding to the interstitium | distribution of binding versus neuronal β-tubulin (Tuj1) staining ([2]; gut and metanephric kidney capsule (FIG. 3 E-H)): closely overlapped

LLEAPAEDHSL(a) (LLEAPAEDHSL-NH2; not fully specified) [SEQ ID NO:11, GDNF precursor-derived neuropeptide; mouse, rat]
pEPSPs, fraction of control (FIG. 4D) [1]: substantially increases | pSpikes, fraction of control (FIG. 4C) [1]: substantially increases | pEPSPs when peptide is added to NEM [1, 7]: no further increase | pSpikes when peptide is added to NEM [1, 7]: no further increase | increase in presynaptic volley with or without NEM (FIG. 4 A, B) ([1]; 10 nM peptide, absence or presence of 250 μM NEM): seen only in the absence of NEM | average increase in the presynaptic fiber volley ([1]; CA1, rat hippocampal slices): 34% | excitatory synaptic input into primary cells in the rat CA1 [1]: modulate | effect on excitability in the presence of a Gi/o-blocking agent ([1]; in the presence of NEM (FIG. 4 B, C, D)): no effect | effective concentrations on pEPSP and pSpike (FIG. 6) ([1]; increasing concentrations): nanomolar | increase of pEPSPs [1, 8]: 30-40% | increase of population spikes (pSPs) [1, 8]: 30-40% | reversal of effects upon removal of peptide from the superfusate [1]: fully or almost fully reversed | specific binding ([3]; I125-labeled peptide with extra N-terminal tyrosine, 0.5-1 nmol/ml): specific binding | binding to adult rat brain slices (FIG. 3 A-D) ([3]; I125-labeled peptide, sections containing the hippocampal area): extensive binding exclusively in adult rat brain; also recorded: intensive binding

PYY3-36: peptide YY fragment, literature comparison
levels necessary for inhibition of synaptic transmission [4]: 1 µM

neuropeptide Y [NPY]
levels necessary for inhibition of synaptic transmission [4]: 1 µM

B1: glial cell line-derived neurotrophic factor (protein, UniProt P39905 78-211, looked up)
Glial cell line-derived …: SPDKQMAVLPRRERNRQAAAANPENSRGKGRRGQRGKNRGCVLTAIHLNVTDLGLGYETKEELIFRYCSGSCDAAETTYDKILKNLSRNRRLVSDKVGQACCRPIAFDDDLSFLDDNLVYHILRKHSAKRCGCI
notes: neurotrophic factor, literature comparison
concentrations required for promotion of ureteric branching [5]: nanomolar | concentrations required for maintenance of primary neurons [6]: nanomolar
